Results on 23 compounds are retold here after patent US10233186B2, “Inhibitors of activin receptor-like kinase” (BLUEPRINT MEDICINES CORPORATION, priority 2016, dated 2019).

One assay concerns the target T1, human ALK2 R206H (Homo sapiens, UniProt Q04771, R206H).
T1 construct: expressed in transfected cells; host or cells: HEK293 (ATCC CRL1573), lentivirus transduction, blasticidin selection
T1 sequence (Q04771 21-509 R206H): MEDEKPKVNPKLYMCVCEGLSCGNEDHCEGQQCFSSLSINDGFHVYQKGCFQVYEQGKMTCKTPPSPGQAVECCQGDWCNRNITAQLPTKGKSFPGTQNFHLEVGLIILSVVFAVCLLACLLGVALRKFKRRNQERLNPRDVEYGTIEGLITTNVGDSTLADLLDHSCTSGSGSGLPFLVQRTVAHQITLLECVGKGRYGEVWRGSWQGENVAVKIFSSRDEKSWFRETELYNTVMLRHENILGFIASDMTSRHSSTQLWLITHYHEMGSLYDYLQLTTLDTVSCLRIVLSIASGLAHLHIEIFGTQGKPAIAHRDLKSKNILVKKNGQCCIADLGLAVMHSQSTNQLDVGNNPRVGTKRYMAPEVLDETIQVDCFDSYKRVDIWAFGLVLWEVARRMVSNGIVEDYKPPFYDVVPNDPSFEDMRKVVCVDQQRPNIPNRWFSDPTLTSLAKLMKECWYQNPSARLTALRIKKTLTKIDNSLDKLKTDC
The assay can be described thus: Cell-based ALK2-R206H cell activity assay (Smad1-Ser463/Ser465 phosphorylation by AlphaLISA in HEK293-ALK2-R206H cells). The settings on record: read-out: Cell Line (Cell Assay IC50). In a few lines:
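Stable HEK293 cells expressing C-terminally FLAG-tagged human ALK2 R206H (lentiviral, blasticidin-selected) were treated with compounds in 10-point, 3-fold dilutions from 10 μM or 1 μM top, in duplicate. Smad1 Ser463/Ser465 phosphorylation was read by AlphaLISA.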

For assay [1], the target named is T2, ALK2 R206H (GST-tagged mutant ALK2) (Homo sapiens, UniProt Q04771, R206H).
T2 construct: purchased Carna Bioscience or ThermoFisher 09-148 or PV6232
T2 sequence (Q04771 21-509 R206H): T1 sequence (Q04771 21-509 R206H)
The assay can be described thus: ALK binding assay (LANTHASCREEN TR-FRET competitive binding, displacement of Kinase Tracer 178). The settings on record: ALK2 R206H, LANTHASCREEN TR-FRET competitive binding; read-out: Binding Assay (IC50).

Take `CC(C)N1CCC[C@@]1(C)c1ccc(-c2cc3c(N4CCN(C(=O)C5CC5)CC4)ccnn3c2)cc1` [Compound 509]: the values for the IC50 (at human ALK2 R206H; in assay [1]) were < 0.1 µM and < 0.01 µM, respectively.

`CC(C)N1CCC[C@]1(C)c1ccc(-c2cc3c(N4CCN(C(=O)C5CC5)CC4)ccnn3c2)cc1` [Compound 510]: the IC50 on human ALK2 R206H is < 0.1 µM; in assay [1], < 0.01 µM.

Take `N#C[C@H]1C[C@@H]1C(=O)N1CCN(c2ccnn3cc(-c4ccc([C@]5(F)CCCNC5)cc4)cc23)CC1` [Compound 511]: the figures for the IC50 (at human ALK2 R206H; in assay [1]) were < 0.1 µM and < 0.01 µM, respectively.

In the case of `N#C[C@@H]1C[C@H]1C(=O)N1CCN(c2ccnn3cc(-c4ccc([C@]5(F)CCCNC5)cc4)cc23)CC1` [Compound 512], the IC50 on human ALK2 R206H was < 0.1 µM; in assay [1], < 0.01 µM.

Take `N#C[C@H]1C[C@@H]1C(=O)N1CCN(c2ccnn3cc(-c4ccc([C@@]5(F)CCCNC5)cc4)cc23)CC1` [Compound 513]: the figures for the IC50 (at human ALK2 R206H; in assay [1]) were < 0.1 µM and < 0.01 µM, respectively.

Turning to `N#C[C@@H]1C[C@H]1C(=O)N1CCN(c2ccnn3cc(-c4ccc([C@@]5(F)CCCNC5)cc4)cc23)CC1` [Compound 514], the values for the half-maximal inhibitory concentration (IC50) (at human ALK2 R206H; in assay [1]) were < 0.1 µM and < 0.01 µM, respectively.

As to `O=C(C1CC1)N1CCN(c2ccnn3cc(-c4ccc(C5CN6CCSC6=N5)cc4)cc23)CC1` (stereo not shown) [Compound 515], the IC50 at human ALK2 R206H is < 0.1 µM; in assay [1], < 0.01 µM.

`CC(C)N1CCNC(c2ccc(-c3cc4c(N5CCN(C(=O)C6CC6)CC5)ccnn4c3)cc2)C1` (stereo not shown) [Compound 516]: the IC50 on human ALK2 R206H was < 0.1 µM; in assay [1], < 0.01 µM.

With `CC(C)N1CCN[C@H](c2ccc(-c3cc4c(N5CCN(C(=O)C6CC6)CC5)ccnn4c3)cc2)C1` [Compound 517], the results for the IC50 (at human ALK2 R206H; in assay [1]) were < 0.1 µM and < 0.01 µM, respectively.

Take `CC(C)N1CCN[C@@H](c2ccc(-c3cc4c(N5CCN(C(=O)C6CC6)CC5)ccnn4c3)cc2)C1` [Compound 518]: the values for the IC50 (at human ALK2 R206H; in assay [1]) were < 0.1 µM and < 0.01 µM, respectively.

On to `CC(C)NC(=O)N1CCN(c2ccnn3cc(-c4ccc(C56CCN(CC5)CC6)cc4)cc23)CC1` [Compound 519], for which the values for the IC50 (on human ALK2 R206H; in assay [1]) were < 0.1 µM and < 0.01 µM, respectively.

As for `CC(C)N1CCOCC1c1ccc(-c2cc3c(N4CCN(C(=O)C5CC5)CC4)ccnn3c2)cc1` (stereo not shown) [Compound 520], the IC50 was < 0.1 µM on human ALK2 R206H and < 0.01 µM in assay [1].

With `COC1(c2ccc(-c3cc4c(N5CCN(C(=O)C6CC6)CC5)ccnn4c3)cc2)CN(C(C)C)C1` [Compound 521], the IC50 was < 0.1 µM at human ALK2 R206H and < 0.01 µM in assay [1].

`CC(C)N1CC[C@](O)(c2ccc(-c3cc4c(N5CCN(C(=O)C6CC6)CC5)ccnn4c3)cc2)C1` [Compound 522]: the IC50 on human ALK2 R206H was < 0.1 µM; in assay [1], < 0.01 µM.

For the compound `CC(C)N1CC[C@@](O)(c2ccc(-c3cc4c(N5CCN(C(=O)C6CC6)CC5)ccnn4c3)cc2)C1` [Compound 523], the figures for the IC50 (at human ALK2 R206H; in assay [1]) were < 0.1 µM and < 0.01 µM, respectively.

Consider `CCOC1(c2ccc(-c3cc4c(N5CCN(C(=O)C6CC6)CC5)ccnn4c3)cc2)CCNCC1` [Compound 524], for which the results for the IC50 (on human ALK2 R206H; in assay [1]) were < 0.1 µM and < 0.01 µM, respectively.

On to `CC(C)N1CC[C@@](O)(c2ccc(-c3cc4c(N5CCN(C(=O)C6CC6)CC5)ccnn4c3)nc2)C1` [Compound 526], for which the IC50 on human ALK2 R206H is < 0.1 µM; in assay [1], < 0.01 µM.

With `CC(C)N1CC[C@](O)(c2ccc(-c3cc4c(N5CCN(C(=O)C6CC6)CC5)ccnn4c3)nc2)C1` [Compound 527], the IC50 at human ALK2 R206H is < 0.1 µM; in assay [1], < 0.01 µM.

Take `CCCNC(=O)N1CCN(c2ccnn3cc(-c4ccc([C@@H]5CCN(C(C)C)C5)cc4)cc23)CC1` [Compound 530]: the IC50 on human ALK2 R206H is < 0.1 µM; in assay [1] it was < 0.01 µM.

On to `CC(C)NC(=O)N1CCN(c2ccnn3cc(-c4ccc([C@@H]5CCN(C(C)C)C5)cc4)cc23)CC1` [Compound 531], for which the figures for the IC50 (on human ALK2 R206H; in assay [1]) were < 0.1 µM and < 0.01 µM, respectively.

Turning to `CCCNC(=O)N1CCN(c2ccnn3cc(-c4ccc([C@H]5CCN(C(C)C)C5)cc4)cc23)CC1` [Compound 532], the IC50 at human ALK2 R206H is < 0.1 µM; in assay [1], < 0.01 µM.

As to `CC(C)NC(=O)N1CCN(c2ccnn3cc(-c4ccc([C@H]5CCN(C(C)C)C5)cc4)cc23)CC1` [Compound 533], the IC50 on human ALK2 R206H is < 0.1 µM; in assay [1], < 0.01 µM.

On to `CCOC(=O)N1CCN(c2ccnn3cc(-c4ccc(C5CCN(C(C)C)CC5)cc4)cc23)CC1` [Compound 534], for which the IC50 on human ALK2 R206H was < 0.1 µM; in assay [1] it was < 0.01 µM.
